# Like-named read-outs stand apart in the source and are kept apart here.
# How the values were obtained:
# [1] = system: Mycobacterium tuberculosis H37Rv CNCTC My 331/88 (ATCC 27294); assay: Antimycobacterial microdilution MABA, M. tuberculosis; format: cell-based; details: for Mtb H37Rv ATCC 27294 MIC: Middlebrook 7H9 with OADC growth supplement, pH = 6.6, MABA; for MIC: Mycobacterium tuberculosis, read-out: Mtb H37Rv ATCC 27294 MIC, Middlebrook 7H9 with OADC growth supplement, pH = 6.6, MABA
# [2] = system: M. kansasii CNCTC My 235/80 (ATCC 12478); assay: Antimycobacterial microdilution MABA, M. kansasii; format: cell-based, Mycobacterium kansasii; details: for MIC: Mycobacterium kansasii, ATCC12478, pH 6.6, read-out: M. kans. ATCC 12478 MIC, Middlebrook 7H9 with OADC, pH 6.6, MABA
# [3] = system: M. avium ssp. avium CNCTC My 80/72 (ATCC 15769); assay: Antimycobacterial microdilution MABA, M. avium; format: cell-based, Mycobacterium avium; details: for MIC: Mycobacterium avium, ATCC15769, pH 6.6, read-out: M. avium ATCC 15769 MIC
# [4] = system: Mycobacterium smegmatis CCM 4622 (ATCC 607); assay: Antimycobacterial microdilution, M. smegmatis; format: cell-based; details: Mycolicibacterium smegmatis, read-out: M. smeg. ATCC 607 MIC
# [5] = system: Staphylococcus aureus CCM 4516/08; assay: Antibacterial microdilution broth, SA; format: cell-based
# [6] = system: Staphylococcus aureus H 5996/08 methicillin resistant; assay: microbe, parasite or virus in culture; format: cell-based; details: for MIC: Staphylococcus aureus, MRSA, read-out: MIC MRSA
# [7] = system: Staphylococcus epidermidis H 6966/08; assay: Antibacterial microdilution broth, SE; format: cell-based; details: read-out: MIC SE
# [8] = system: Enterococcus sp. J 14365/08; assay: Antibacterial microdilution broth, EF; format: cell-based; details: Enterococcus, read-out: MIC EF
# [9] = system: Escherichia coli CCM 4517; assay: Antibacterial microdilution broth, EC; format: cell-based; details: Escherichia coli, read-out: MIC EC
# [10] = system: Pseudomonas aeruginosa CCM 1961; assay: Antibacterial microdilution broth, PA; format: cell-based; details: Pseudomonas aeruginosa, read-out: MIC PA
# [11] = system: Candida albicans ATCC 44859; assay: Antifungal microdilution broth, CA; format: cell-based; details: Candida albicans, read-out: MIC CA
# [12] = system: Candida tropicalis 156; assay: Antifungal microdilution broth, CT; format: cell-based; details: read-out: MIC CT
# [13] = system: Candida krusei E28; assay: Antifungal microdilution broth, CK; format: cell-based; details: Pichia kudriavzevii, read-out: MIC CK
# [14] = system: Candida glabrata 20/I; assay: Antifungal microdilution broth, CG; format: cell-based; details: Nakaseomyces glabratus, 20/I, read-out: MIC CG
# [15] = system: Trichosporon asahii 1188; assay: Antifungal microdilution broth, TA; format: cell-based; details: read-out: MIC TA
# [16] = system: Aspergillus fumigatus 231; assay: Antifungal microdilution broth, AF; format: cell-based; details: read-out: MIC AF
# [17] = system: Lichtheimia corymbifera 272; assay: Antifungal microdilution broth, LC; format: cell-based; details: read-out: MIC LC
# [18] = system: Trichophyton interdigitale 445; assay: Antifungal microdilution broth, TI; format: cell-based; details: read-out: MIC TI
# [19] = Staphylococcus aureus, CCM4516, 24 h, read-out: MIC SA, 24 h
# [20] = Staphylococcus aureus, CCM4516, 48 h, read-out: MIC SA, 48 h
# [21] = Staphylococcus epidermidis, H6966/08, 24 h
# [22] = Staphylococcus epidermidis, H6966/08, 48 h
# [23] = Trichosporon asahii, 1188, 24 h
# [24] = Trichosporon asahii, 1188, 48 h
# [25] = Aspergillus fumigatus, 231, 24 h
# [26] = Aspergillus fumigatus, 231, 48 h
# [27] = Lichtheimia corymbifera, 272, 24 h
# [28] = Lichtheimia corymbifera, 272, 48 h
# [29] = Trichophyton interdigitale, 445, 72 h
# [30] = Trichophyton interdigitale, 445, 120 h
# [31] = Middlebrook 7H9 with OADC, pH 6.6, MABA
compound,measurement,setting,value
O=C(Nc1cnc(Cl)cn1)c1ccc(Br)cc1 [Compound 2m],Mtb H37Rv ATCC 27294 MIC,[1],>100 µg/mL
same,MIC,[1],> 100 µg/mL
same,MIC,[2],> 100 µg/mL
same,MIC,[3],> 100 µg/mL
same,MIC,[4],≥ 500 µg/mL
same,MIC,[5]; [19],> 125 µM
same,MIC,[5]; [20],> 125 µM
same,MIC,[6]; 24 h,> 125 µM
same,MIC,[6]; 48 h,> 125 µM
same,MIC,[7]; [21],> 125 µM
same,MIC,[7]; [22],> 125 µM
same,MIC,"[8]; SP.J14365/08, 24 h",> 125 µM
same,MIC,"[8]; SP.J14365/08, 48 h",> 125 µM
same,MIC,"[9]; CCM4517, 24 h",> 125 µM
same,MIC,"[9]; CCM4517, 48 h",> 125 µM
same,MIC,"[10]; CCM1961, 72 h",> 125 µM
same,MIC,"[10]; CCM1961, 120 h",> 125 µM
same,MIC,"[11]; ATCC44859, 24 h",> 125 µM
same,MIC,"[11]; ATCC44859, 48 h",> 125 µM
same,MIC,"[12]; Candida tropicalis, 156, 24 h",> 125 µM
same,MIC,"[12]; Candida tropicalis, 156, 48 h",> 125 µM
same,MIC,"[13]; E28, 24 h",> 125 µM
same,MIC,"[13]; E28, 48 h",> 125 µM
same,MIC,[14]; 24 h,> 125 µM
same,MIC,[14]; 48 h,> 125 µM
same,MIC,[15]; [23],> 125 µM
same,MIC,[15]; [24],> 125 µM
same,MIC,[16]; [25],> 125 µM
same,MIC,[16]; [26],> 125 µM
same,MIC,[17]; [27],> 125 µM
same,MIC,[17]; [28],> 125 µM
same,MIC,[18]; [29],> 125 µM
same,MIC,[18]; [30],> 125 µM
same,melting point,,229.2 to 230.5 °C
CC(=O)Oc1ccc(C(=O)Nc2cnccn2)cc1 [Compound 1d-Ac],MIC,[1],> 100 µg/mL
same,MIC,[2],> 100 µg/mL
same,MIC,[3],> 100 µg/mL
same,MIC,[4],≥ 500 µg/mL
same,MIC,[5]; [19],> 500 µM
same,MIC,[5]; [20],> 500 µM
same,MIC,[6]; 24 h,> 500 µM
same,MIC,[6]; 48 h,> 500 µM
same,MIC,[7]; [21],> 500 µM
same,MIC,[7]; [22],> 500 µM
same,MIC,"[8]; SP.J14365/08, 24 h",> 500 µM
same,MIC,"[8]; SP.J14365/08, 48 h",> 500 µM
same,MIC,"[9]; CCM4517, 24 h",> 500 µM
same,MIC,"[9]; CCM4517, 48 h",> 500 µM
same,MIC,"[10]; CCM1961, 72 h",> 500 µM
same,MIC,"[10]; CCM1961, 120 h",> 500 µM
same,MIC,"[11]; ATCC44859, 24 h",> 500 µM
same,MIC,"[11]; ATCC44859, 48 h",> 500 µM
same,MIC,"[12]; Candida tropicalis, 156, 24 h",> 500 µM
same,MIC,"[12]; Candida tropicalis, 156, 48 h",> 500 µM
same,MIC,"[13]; E28, 24 h",> 500 µM
same,MIC,"[13]; E28, 48 h",> 500 µM
same,MIC,[14]; 24 h,> 500 µM
same,MIC,[14]; 48 h,> 500 µM
same,MIC,[15]; [23],> 500 µM
same,MIC,[15]; [24],> 500 µM
same,MIC,[16]; [25],> 500 µM
same,MIC,[16]; [26],> 500 µM
same,MIC,[17]; [27],> 500 µM
same,MIC,[17]; [28],> 500 µM
same,MIC,[18]; [29],> 500 µM
same,MIC,[18]; [30],> 500 µM
same,melting point,,147.4 to 149.4 °C
CC(=O)Oc1cccc(C(=O)Nc2cnc(Cl)cn2)c1 [Compound 2c-Ac],Mtb H37Rv ATCC 27294 MIC,[1],>100 µg/mL
same,MIC,[1],> 100 µg/mL
same,M. kans. ATCC 12478 MIC,[2]; [31],>100 µg/mL
same,MIC,[2],> 100 µg/mL
same,M. avium ATCC 15769 MIC,[3]; [31],>100 µg/mL
same,MIC,[3],> 100 µg/mL
same,MIC,[4],250 µg/mL
same,MIC,"[5]; 24 h, read-out: MIC SA",>125 µM
same,MIC,"[5]; 48 h, read-out: MIC SA",>125 µM
same,MIC,[5]; [19],> 125 µM
same,MIC,[5]; [20],> 125 µM
same,MIC MRSA,[6]; 24 h,>125 µM
same,MIC MRSA,[6]; 48 h,>125 µM
same,MIC,[6]; 24 h,> 125 µM
same,MIC,[6]; 48 h,> 125 µM
same,MIC,[7]; 24 h,>125 µM
same,MIC,[7]; 48 h,>125 µM
same,MIC,[7]; [21],> 125 µM
same,MIC,[7]; [22],> 125 µM
same,MIC,"[8]; SP.J14365/08, 24 h",> 125 µM
same,MIC,"[8]; SP.J14365/08, 48 h",> 125 µM
same,MIC,"[9]; CCM4517, 24 h",> 125 µM
same,MIC,"[9]; CCM4517, 48 h",> 125 µM
same,MIC,"[10]; CCM1961, 72 h",> 125 µM
same,MIC,"[10]; CCM1961, 120 h",> 125 µM
same,MIC,"[11]; ATCC44859, 24 h",> 125 µM
same,MIC,"[11]; ATCC44859, 48 h",> 125 µM
same,MIC,"[12]; Candida tropicalis, 156, 24 h",> 125 µM
same,MIC,"[12]; Candida tropicalis, 156, 48 h",> 125 µM
same,MIC,"[13]; E28, 24 h",> 125 µM
same,MIC,"[13]; E28, 48 h",> 125 µM
same,MIC,[14]; 24 h,> 125 µM
same,MIC,[14]; 48 h,> 125 µM
same,MIC,[15]; [23],> 125 µM
same,MIC,[15]; [24],> 125 µM
same,MIC,[16]; [25],> 125 µM
same,MIC,[16]; [26],> 125 µM
same,MIC,[17]; [27],> 125 µM
same,MIC,[17]; [28],> 125 µM
same,MIC,[18]; [29],> 125 µM
same,MIC,[18]; [30],> 125 µM
same,melting point,,184.1 to 184.6 °C

# Source: PMC6225228, “Design, Synthesis and Evaluation of N-pyrazinylbenzamides as Potential Antimycobacterial Agents” (Molecules : A Journal of Synthetic Chemistry and Natural …, 2018)
